Paper PMC12524942, “Efficient Hydrolysis of Dichlorvos in Water by Stenotrophomonas acidaminiphila G1 and Methyl Parathion Hydrolase” (International Journal of Molecular Sciences, 2025)

Target: T1, MPD (methyl parathion hydrolase) (Stenotrophomonas sp. YC-1, UniProt Q0PWQ4)
T1 construct: full ORF (primers from […] to stop; locus Chr1:1174990-1175985, 996 bp), pET28a EcoRI/HindIII, His tag, E. coli BL21(DE3); 331 residues per monomer
Assay: UPLC of residual DDVP, Michaelis-Menten fit
Type: biochemical
Conditions: 37 °C, 1 min; DDVP 0.01 to 0.04 mM; enzyme refolded from urea

T1 sequence (Q0PWQ4 entry or part of it): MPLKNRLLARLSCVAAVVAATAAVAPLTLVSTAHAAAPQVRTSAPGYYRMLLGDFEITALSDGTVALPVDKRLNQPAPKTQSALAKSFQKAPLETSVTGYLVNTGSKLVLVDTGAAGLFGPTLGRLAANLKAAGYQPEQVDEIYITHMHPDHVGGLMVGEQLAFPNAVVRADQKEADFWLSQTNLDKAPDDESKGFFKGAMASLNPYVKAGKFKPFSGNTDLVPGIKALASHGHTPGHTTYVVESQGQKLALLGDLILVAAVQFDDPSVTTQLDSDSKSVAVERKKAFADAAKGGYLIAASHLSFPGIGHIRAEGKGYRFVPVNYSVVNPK

`COP(=O)(OC)OC=C(Cl)Cl` [DDVP, Dichlorvos] was tested, and the Km was 99 µM.
